Results on eight compounds are retold here after patent US20260115250A1, “METHODS OF TREATING AGE-RELATED MACULAR DEGENERATION” (Character Biosciences, Inc., priority 2022, published 2026).

Data set [1] has as its target T1, LDLR (Homo sapiens, UniProt P01130). As to the kind of experiment: KD (µM). The text has this:
First copying reader's note: Left of three side-by-side panels of FIG. 23; the KD cells hold value ± error together. Where the first naming reader finds the target: description_of_the_figure: FIG. 23 is a table showing the binding kinetics results of LDLR binding assays (SPR)
Target sequence in this assay (P01130 22-860 limits assumed): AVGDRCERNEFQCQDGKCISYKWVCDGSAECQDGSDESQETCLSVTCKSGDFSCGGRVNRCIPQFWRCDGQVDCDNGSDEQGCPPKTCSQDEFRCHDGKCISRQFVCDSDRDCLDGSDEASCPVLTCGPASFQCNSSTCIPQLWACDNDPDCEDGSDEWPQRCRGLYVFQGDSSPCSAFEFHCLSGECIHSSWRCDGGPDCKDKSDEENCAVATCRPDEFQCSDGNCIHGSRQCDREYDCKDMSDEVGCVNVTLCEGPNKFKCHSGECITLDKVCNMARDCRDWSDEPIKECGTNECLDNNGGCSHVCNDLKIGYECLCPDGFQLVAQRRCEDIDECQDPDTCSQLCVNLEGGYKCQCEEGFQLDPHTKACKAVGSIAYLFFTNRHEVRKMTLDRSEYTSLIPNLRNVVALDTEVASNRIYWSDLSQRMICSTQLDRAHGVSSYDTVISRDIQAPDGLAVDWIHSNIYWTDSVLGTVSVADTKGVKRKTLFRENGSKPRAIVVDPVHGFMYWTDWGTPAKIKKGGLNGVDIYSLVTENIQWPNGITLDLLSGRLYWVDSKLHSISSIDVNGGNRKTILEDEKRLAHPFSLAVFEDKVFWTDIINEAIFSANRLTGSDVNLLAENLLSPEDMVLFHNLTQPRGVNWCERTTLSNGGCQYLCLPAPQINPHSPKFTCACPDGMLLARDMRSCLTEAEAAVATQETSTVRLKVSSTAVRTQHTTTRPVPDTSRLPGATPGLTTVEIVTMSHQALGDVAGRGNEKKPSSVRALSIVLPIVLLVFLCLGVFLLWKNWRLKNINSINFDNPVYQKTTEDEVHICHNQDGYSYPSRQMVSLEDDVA

For data set [2], the target named is T1, LDLR. As to the kind of experiment: KD, Peptide (μM).
Target sequence in this assay (P01130 22-860 limits assumed): as above
Text: Title: Buffer: HBS + 0.005% P20
Head of the field: KD, Peptide (μM)
First copying reader's note: KD values are for binding to LDLR by SPR, peptide alone versus peptide:DMPC lipid complex; the table continues on FIG. 24B.
In data set [3] the target is T1, LDLR. As to the kind of experiment: LDLR binding (SPR), high surfactant preparation. The note with it: high surfactant preparation (HBS-P+), 1:1 binding model; read-out: binding KD to LDLR. The method in brief:
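Multi-cycle kinetics fitted 1:1: peptide flowed at 30 μL/sec for 120 seconds over immobilised LDLR (amine coupling, CM5, 1000 RU) in running buffer HBS-P+ plus 1 mM CaCl2. Five concentrations per peptide, 1:3 serial from 5 μM; surface regenerated between cycles with 50 mM NaOH/100 mM EDTA.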
Target sequence in this assay (P01130 22-860): as the sequence (P01130 22-860 limits assumed) above

The test system of another data set is ARPE-19 cells. As to the kind of experiment: ARPE-19 cell viability assay (Cell Titer Glo). The note with it: 100 μM peptide, 1.5 hours. Format: cell-based, human. As for the experimental part:
ARPE-19 cells were seeded in 96-well plates at 25,000 cells/well and allowed to adhere to the plate surface for at least 24 hours. Peptides were diluted in serum-free DMEM: F12 to a final concentration of 100 μM. Cells were washed, then incubated in 100 μM peptide solution for 1.5 hours at 37° C. Plates were brought to room temperature for 30 minutes, then washed with DPBS. Cells were incubated in a 1:1 mixture of DPBS and Cell Titer Glo 2.0 Reagent for 10 minutes at room temperature, then cell luminescence was read on a plate reader. Viability values were background corrected, and 0% viability is determined by luminescence values of cells treated with 1% Triton-X-100. Data are presented as mean+SD over two separate runs.
A general note: Cellular ATP, detected with luciferase, serves as a proxy for viable cell number.

Ends that are not written are not given here. Peptide text beside a SMILES is read from it.

As to `CC(C)C[C@H](NC(=O)[C@H](CCCNC(=N)N)NC(=O)[C@H](CCCCN)NC(=O)[C@H](CCC(N)=O)NC(=O)[C@H](CC(C)C)NC(=O)[C@H](CC(=O)O)NC(=O)[C@H](CC(=O)O)NC(=O)[C@H](C)NC(=O)[C@H](CC(=O)O)NC(=O)[C@H](CCCNC(=N)N)NC(=O)[C@H](CC(C)C)NC(=O)[C@H](CC(C)C)NC(=O)[C@H](CCCNC(=N)N)NC(=O)[C@H](CCCCN)NC(=O)[C@H](CCCNC(=N)N)NC(=O)[C@H](CC(C)C)NC(=O)[C@H](CCCCN)NC(=O)[C@H](CCCNC(=N)N)NC(=O)[C@H](CC(C)C)NC(=O)[C@@H](N)Cc1c[nH]cn1)C(=O)N[C@@H](C)C(=O)N[C@H](C(=O)N[C@@H](Cc1ccc(O)cc1)C(=O)N[C@@H](CCC(N)=O)C(=O)N[C@@H](C)C(=O)NCC(=O)N[C@@H](C)C(=O)N[C@@H](CCCNC(=N)N)C(=O)N[C@@H](CCC(=O)O)C(=O)NCC(=O)N[C@@H](C)C(=O)N[C@@H](CCC(=O)O)C(=O)N[C@@H](CCCNC(=N)N)C(=O)O)C(C)C` [T-043] (H-HLRKLRKRLLRDADDLQKRLAVYQAGAREGAER-OH; N-terminus and C-terminus assumed), the values for the Kd on LDLR [1] and at LDLR [2] were 48.6 µM and 840 ± 1150 µM, respectively. As to `CC(C)C[C@H](NC(=O)[C@H](CCCNC(=N)N)NC(=O)[C@H](CCCCN)NC(=O)[C@H](CCC(N)=O)NC(=O)[C@H](CC(C)C)NC(=O)[C@H](CC(=O)O)NC(=O)[C@H](CC(=O)O)NC(=O)[C@H](C)NC(=O)[C@H](CC(=O)O)NC(=O)[C@H](CCCNC(=N)N)NC(=O)[C@H](CC(C)C)NC(=O)[C@H](CC(C)C)NC(=O)[C@H](CCCNC(=N)N)NC(=O)[C@H](CCCCN)NC(=O)[C@H](CCCNC(=N)N)NC(=O)[C@H](CC(C)C)NC(=O)[C@H](CCCCN)NC(=O)[C@H](CCCNC(=N)N)NC(=O)[C@H](CC(C)C)NC(=O)[C@@H](N)Cc1c[nH]cn1)C(=O)N[C@@H](C)C(=O)N[C@H](C(=O)N[C@@H](Cc1ccc(O)cc1)C(=O)N[C@@H](CCC(N)=O)C(=O)N[C@@H](C)C(=O)O)C(C)C` [T-045] (H-HLRKLRKRLLRDADDLQKRLAVYQA-OH; N-terminus and C-terminus assumed), the dissociation constant (Kd) (usually the equilibrium constant for the complex coming apart) came to 71.2 ± 31.8 µM at LDLR [1] and 11800 ± 1250 µM at LDLR [2].

Consider `CC(C)C[C@H](NC(=O)[C@H](CCCNC(=N)N)NC(=O)[C@H](CCCCN)NC(=O)[C@H](CCC(N)=O)NC(=O)[C@H](CC(C)C)NC(=O)[C@H](CC(=O)O)NC(=O)[C@H](CC(=O)O)NC(=O)[C@H](C)NC(=O)[C@H](CC(=O)O)NC(=O)[C@H](CCCNC(=N)N)NC(=O)[C@H](C)NC(=O)[C@H](CC(C)C)NC(=O)[C@H](CCCNC(=N)N)NC(=O)[C@H](CCCCN)NC(=O)[C@H](CCCNC(=N)N)NC(=O)[C@H](CC(C)C)NC(=O)[C@H](CCCCN)NC(=O)[C@H](CCCNC(=N)N)NC(=O)[C@H](CC(C)C)NC(=O)[C@H](Cc1c[nH]cn1)NC(=O)[C@H](CCCNC(=N)N)NC(=O)[C@H](C)NC(=O)[C@@H](N)CC(C)C)C(=O)N[C@@H](C)C(=O)N[C@H](C(=O)N[C@@H](Cc1ccc(O)cc1)C(=O)N[C@@H](CCC(N)=O)C(=O)N[C@@H](C)C(=O)NCC(=O)N[C@@H](C)C(=O)N[C@@H](CCCNC(=N)N)C(=O)N[C@@H](CCC(=O)O)C(=O)NCC(=O)N[C@@H](C)C(=O)N[C@@H](CCC(=O)O)C(=O)N[C@@H](CCCNC(=N)N)C(=O)O)C(C)C` [T-047] (H-LARHLRKLRKRLARDADDLQKRLAVYQAGAREGAER-OH), for which the results for the equilibrium dissociation constant (Kd) on LDLR [3] and at LDLR [1] were less than 10 µM and 3.26 ± 0.23 µM, respectively. Take “LVQYRGEVQAMLGQSTEELRVRLASHLRKLRKRLLRDADDLQ [T-071]”: the dissociation constant (Kd) at LDLR [2] was 18.5 ± 2.69 µM. Compound `CC(C)C[C@H](NC(=O)[C@H](CCCNC(=N)N)NC(=O)[C@H](CC(=O)O)NC(=O)[C@H](CCC(N)=O)NC(=O)[C@H](CC(C)C)NC(=O)[C@H](CCCCN)NC(=O)[C@H](CC(=O)O)NC(=O)[C@H](C)NC(=O)[C@H](CC(=O)O)NC(=O)[C@H](CCCNC(=N)N)NC(=O)[C@H](CC(C)C)NC(=O)[C@H](CC(C)C)NC(=O)[C@H](CCCNC(=N)N)NC(=O)[C@H](CCCCN)NC(=O)[C@H](CCCNC(=N)N)NC(=O)[C@H](CC(C)C)NC(=O)[C@H](CCCCN)NC(=O)[C@H](CCCNC(=N)N)NC(=O)[C@H](CC(C)C)NC(=O)[C@@H](N)Cc1c[nH]cn1)C(=O)N[C@@H](C)C(=O)N[C@@H](CCC(=O)O)C(=O)N[C@@H](Cc1ccc(O)cc1)C(=O)N[C@@H](CCC(N)=O)C(=O)N[C@@H](C)C(=O)N[C@@H](CCCNC(=N)N)C(=O)N[C@@H](C)C(=O)N[C@@H](CCCCN)C(=O)N[C@@H](CCC(=O)O)C(=O)N[C@@H](C)C(=O)N[C@@H](Cc1ccccc1)C(=O)N[C@@H](CC(=O)O)C(=O)N[C@@H](CCCNC(=N)N)C(=O)O` [T-050] (H-HLRKLRKRLLRDADKLQDRLAEYQARAKEAFDR-OH; N-terminus and C-terminus assumed) gave a dissociation constant Kd at LDLR [1] of 528.5 ± 0.71 µM. On to `CC(C)C[C@H](NC(=O)[C@H](CCCNC(=N)N)NC(=O)[C@H](CC(=O)O)NC(=O)[C@H](Cc1ccc(O)cc1)NC(=O)[C@H](CC(C)C)NC(=O)[C@H](CCCCN)NC(=O)[C@H](CC(=O)O)NC(=O)CNC(=O)[C@H](CC(=O)O)NC(=O)[C@H](CCCNC(=N)N)NC(=O)[C@H](CC(C)C)NC(=O)[C@H](CC(C)C)NC(=O)[C@H](CCCNC(=N)N)NC(=O)[C@H](CCCCN)NC(=O)[C@H](CCCNC(=N)N)NC(=O)[C@H](CC(C)C)NC(=O)[C@H](CCCCN)NC(=O)[C@H](CCCNC(=N)N)NC(=O)[C@H](CC(C)C)NC(=O)[C@@H](N)Cc1c[nH]cn1)C(=O)N[C@@H](C)C(=O)N[C@@H](CCC(=O)O)C(=O)N[C@@H](Cc1ccc(O)cc1)C(=O)N[C@@H](Cc1ccc(O)cc1)C(=O)N[C@@H](C)C(=O)N[C@@H](CCCNC(=N)N)C(=O)N[C@@H](C)C(=O)N[C@@H](CCCCN)C(=O)N[C@@H](CCC(=O)O)C(=O)N[C@@H](C)C(=O)N[C@@H](Cc1ccccc1)C(=O)N[C@@H](CC(=O)O)C(=O)N[C@@H](CCCNC(=N)N)C(=O)O` [T-062] (H-HLRKLRKRLLRDGDKLYDRLAEYYARAKEAFDR-OH), for which the ARPE-19 cell viability result in the data set with ARPE-19 cells is “substantial change in viability”. At LDLR [3], the dissociation constant Kd was less than 10 µM. For `CC(C)C[C@H](NC(=O)[C@H](CCCNC(=N)N)NC(=O)[C@H](CC(=O)O)NC(=O)[C@H](CCC(N)=O)NC(=O)[C@H](CC(C)C)NC(=O)[C@H](CCCCN)NC(=O)[C@H](CC(=O)O)NC(=O)CNC(=O)[C@H](CC(=O)O)NC(=O)[C@H](CCCNC(=N)N)NC(=O)[C@H](CC(C)C)NC(=O)[C@H](CC(C)C)NC(=O)[C@H](CCCNC(=N)N)NC(=O)[C@H](CCCCN)NC(=O)[C@H](CCCNC(=N)N)NC(=O)[C@H](CC(C)C)NC(=O)[C@H](CCCCN)NC(=O)[C@H](CCCNC(=N)N)NC(=O)[C@H](CC(C)C)NC(=O)[C@H](Cc1c[nH]cn1)NC(=O)[C@H](CO)NC(=O)[C@H](C)NC(=O)[C@@H](N)CC(C)C)C(=O)N[C@@H](C)C(=O)N[C@@H](CCC(=O)O)C(=O)N[C@@H](Cc1ccc(O)cc1)C(=O)N[C@@H](CCC(N)=O)C(=O)N[C@@H](C)C(=O)N[C@@H](CCCNC(=N)N)C(=O)N[C@@H](C)C(=O)N[C@@H](CCCCN)C(=O)N[C@@H](CCC(=O)O)C(=O)N[C@@H](C)C(=O)N[C@@H](Cc1ccccc1)C(=O)N[C@@H](CC(=O)O)C(=O)N[C@@H](CCCNC(=N)N)C(=O)O` [T-048], the Kd was less than 10 µM at LDLR [3] and 11.4 ± 5.29 µM on LDLR [2].

For the compound `CC(C)C[C@H](NC(=O)[C@H](CCCNC(=N)N)NC(=O)[C@H](CC(=O)O)NC(=O)[C@H](CCC(N)=O)NC(=O)[C@H](CC(C)C)NC(=O)[C@H](CCCCN)NC(=O)[C@H](CC(=O)O)NC(=O)CNC(=O)[C@H](CC(=O)O)NC(=O)[C@H](CCCNC(=N)N)NC(=O)[C@H](C)NC(=O)[C@H](CC(C)C)NC(=O)[C@H](CCCNC(=N)N)NC(=O)[C@H](CCCCN)NC(=O)[C@H](CCCNC(=N)N)NC(=O)[C@H](CC(C)C)NC(=O)[C@H](CCCCN)NC(=O)[C@H](CCCNC(=N)N)NC(=O)[C@H](CC(C)C)NC(=O)[C@H](Cc1c[nH]cn1)NC(=O)[C@H](CCCNC(=N)N)NC(=O)[C@H](C)NC(=O)[C@@H](N)CC(C)C)C(=O)N[C@@H](C)C(=O)N[C@@H](CCC(=O)O)C(=O)N[C@@H](Cc1ccc(O)cc1)C(=O)N[C@@H](CCC(N)=O)C(=O)N[C@@H](C)C(=O)N[C@@H](CCCNC(=N)N)C(=O)N[C@@H](C)C(=O)N[C@@H](CCCCN)C(=O)N[C@@H](CCC(=O)O)C(=O)N[C@@H](C)C(=O)N[C@@H](Cc1ccccc1)C(=O)N[C@@H](CC(=O)O)C(=O)N[C@@H](CCCNC(=N)N)C(=O)O` [T-049] (H-LARHLRKLRKRLARDGDKLQDRLAEYQARAKEAFDR-OH), the dissociation constant (Kd) was less than 10 µM at LDLR [3] and 3.26 ± 0.2 µM at LDLR [1].
